Source: ChEMBL document CHEMBL1201862, “PubChem BioAssay data set” (2004)
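1) Cells in 96-well plates. 2) Compound, 48 h, 5 concentrations. 3) Linear interpolation between surrounding doses. 4) Unreached endpoint = highest concentration. Here, GI50 denotes the concentration required for 50% inhibition of growth.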 Active and inactive are the calls of the source. No stated cut-off is given here; in the data, active = GI50 up to about 1.1 µM and inactive = higher.

Assays:
Test in all cases: inhibition of tumour cell growth, NCI panel, 48 h
[1] = test system: SF-539
[2] = test system: CCRF-CEM
[3] = test system: BT-549
[4] = test system: A549
[5] = test system: CAKI-1
[6] = test system: HT-29
[7] = test system: OVCAR-5
[8] = test system: COLO 205
[9] = test system: OVCAR-3
[10] = test system: KM12
[11] = test system: EKVX
[12] = test system: MDA-MB-435
[13] = test system: SW-620
[14] = test system: 786-0
[15] = test system: MOLT-4
[16] = test system: ACHN
[17] = test system: HCT-116
[18] = test system: LOX IMVI
[19] = test system: TK-10
[20] = test system: HCT-15
[21] = test system: Hs-578T
[22] = test system: NCI-H226
[23] = test system: MDA-MB-231
[24] = test system: M14
[25] = test system: U-251
[26] = test system: HOP-62
[27] = test system: RXF 393
[28] = test system: SR
[29] = test system: DU-145
[30] = test system: NCI/ADR-RES
[31] = test system: SN12C
[32] = test system: SF-295
[33] = test system: NCI-H460
[34] = test system: MCF7
[35] = test system: SNB-19
[36] = test system: HCC 2998
[37] = test system: SK-MEL-2
[38] = test system: UACC-257
[39] = test system: IGROV-1
[40] = test system: SK-MEL-5
[41] = test system: T47D
[42] = test system: K562
[43] = test system: OVCAR-4
[44] = test system: RPMI-8226
[45] = test system: SNB-75
[46] = test system: SK-OV-3
[47] = test system: SF-268
[48] = test system: NCI-H23
[49] = test system: MDA-N
[50] = test system: UO-31
[51] = test system: PC-3
[52] = test system: SK-MEL-28
[53] = test system: NCI-H522
[54] = test system: OVCAR-8
[55] = test system: Malme-3M
[56] = test system: HOP-92
[57] = test system: A498
[58] = test system: UACC-62

SMILES: CCOC(=O)C1(C(=O)OCC)CCCN1C(=O)[C@H](CNC(=O)OC(C)(C)C)NC(=O)OCc1ccccc1
- GI50 [1]: > 100 µM (inactive)
- GI50 [2]: 17.4 µM (inactive)
- GI50 [3]: > 100 µM (inactive)
- GI50 [4]: > 100 µM (inactive)
- GI50 [5]: > 100 µM (inactive)
- GI50 [6]: > 100 µM (inactive)
- GI50 [7]: > 100 µM (inactive)
- GI50 [8]: > 100 µM (inactive)
- GI50 [9]: > 100 µM (inactive)
- GI50 [10]: > 100 µM (inactive)
- GI50 [11]: > 100 µM (inactive)
- GI50 [12]: > 100 µM (inactive)
- GI50 [13]: > 100 µM (inactive)
- GI50 [14]: > 100 µM (inactive)
- GI50 [15]: 27.8 µM (inactive)
- GI50 [16]: > 100 µM (inactive)
- GI50 [17]: > 100 µM (inactive)
- GI50 [18]: > 100 µM (inactive)
- GI50 [19]: > 100 µM (inactive)
- GI50 [20]: > 100 µM
- GI50 [21]: > 100 µM (inactive)
- GI50 [22]: > 100 µM (inactive)
- GI50 [23]: > 100 µM (inactive)
- GI50 [24]: > 100 µM (inactive)
- GI50 [25]: > 100 µM (inactive)
- GI50 [26]: > 100 µM (inactive)
- GI50 [27]: > 100 µM (inactive)
- GI50 [28]: 51.6 µM (inactive)
- GI50 [29]: > 100 µM (inactive)
- GI50 [30]: > 100 µM (inactive)
- GI50 [31]: > 100 µM (inactive)
- GI50 [32]: > 100 µM (inactive)
- GI50 [33]: > 100 µM (inactive)
- GI50 [34]: > 100 µM (inactive)
- GI50 [35]: > 100 µM (inactive)
- GI50 [36]: 67.6 µM (inactive)
- GI50 [37]: > 100 µM (inactive)
- GI50 [38]: > 100 µM (inactive)
- GI50 [39]: > 100 µM (inactive)
- GI50 [40]: > 100 µM (inactive)
- GI50 [41]: > 100 µM (inactive)
- GI50 [42]: 32.8 µM (inactive)
- GI50 [43]: > 100 µM (inactive)
- GI50 [44]: 31.3 µM (inactive)
- GI50 [45]: 79.6 µM (inactive)
- GI50 [46]: > 100 µM (inactive)
- GI50 [47]: > 100 µM (inactive)
- GI50 [48]: > 100 µM (inactive)
- GI50 [49]: > 100 µM (inactive)
- GI50 [50]: > 100 µM (inactive)
- GI50 [51]: > 100 µM (inactive)
- GI50 [52]: > 100 µM (inactive)

SMILES: COc1ccc(/C=C/c2cnccn2)cc1OC
- GI50 [1]: > 10 µM (inactive)
- GI50 [3]: > 10 µM (inactive)
- GI50 [4]: > 10 µM (inactive)
- GI50 [5]: > 10 µM (inactive)
- GI50 [6]: > 10 µM (inactive)
- GI50 [7]: > 10 µM (inactive)
- GI50 [8]: > 10 µM (inactive)
- GI50 [9]: > 10 µM (inactive)
- GI50 [10]: > 10 µM (inactive)
- GI50 [11]: > 10 µM (inactive)
- GI50 [12]: > 10 µM (inactive)
- GI50 [13]: > 10 µM (inactive)
- GI50 [14]: > 10 µM (inactive)
- GI50 [16]: > 10 µM (inactive)
- GI50 [17]: > 10 µM (inactive)
- GI50 [18]: > 10 µM (inactive)
- GI50 [19]: > 10 µM (inactive)
- GI50 [53]: > 10 µM (inactive)
- GI50 [20]: > 10 µM
- GI50 [21]: > 10 µM (inactive)
- GI50 [54]: > 10 µM (inactive)
- GI50 [22]: > 10 µM (inactive)
- GI50 [23]: > 10 µM (inactive)
- GI50 [55]: > 10 µM (inactive)
- GI50 [24]: > 10 µM (inactive)
- GI50 [25]: > 10 µM (inactive)
- GI50 [26]: > 10 µM (inactive)
- GI50 [27]: > 10 µM (inactive)
- GI50 [29]: > 10 µM (inactive)
- GI50 [30]: > 10 µM (inactive)
- GI50 [31]: > 10 µM (inactive)
- GI50 [32]: > 10 µM (inactive)
- GI50 [33]: > 10 µM (inactive)
- GI50 [34]: > 10 µM (inactive)
- GI50 [35]: > 10 µM (inactive)
- GI50 [36]: > 10 µM (inactive)
- GI50 [56]: > 10 µM (inactive)
- GI50 [37]: > 10 µM (inactive)
- GI50 [38]: > 10 µM (inactive)
- GI50 [39]: > 10 µM (inactive)
- GI50 [57]: > 10 µM (inactive)
- GI50 [40]: > 10 µM (inactive)
- GI50 [41]: > 10 µM (inactive)
- GI50 [43]: > 10 µM (inactive)
- GI50 [45]: > 10 µM (inactive)
- GI50 [58]: > 10 µM (inactive)
- GI50 [46]: > 10 µM (inactive)
- GI50 [47]: > 10 µM (inactive)
- GI50 [48]: > 10 µM (inactive)
- GI50 [49]: > 10 µM (inactive)
- GI50 [50]: > 10 µM (inactive)
- GI50 [51]: > 10 µM (inactive)
- GI50 [52]: > 10 µM (inactive)

SMILES: NC(=O)NNC(=O)c1nc[nH]c1[N+](=O)[O-]
- GI50 [1]: > 100 µM (inactive)
- GI50 [2]: > 100 µM (inactive)
- GI50 [3]: > 100 µM (inactive)
- GI50 [4]: > 100 µM (inactive)
- GI50 [5]: > 100 µM (inactive)
- GI50 [6]: > 100 µM (inactive)
- GI50 [7]: > 100 µM (inactive)
- GI50 [8]: > 100 µM (inactive)
- GI50 [9]: > 100 µM (inactive)
- GI50 [11]: > 100 µM (inactive)
- GI50 [12]: > 100 µM (inactive)
- GI50 [13]: > 100 µM (inactive)
- GI50 [14]: > 100 µM (inactive)
- GI50 [15]: > 100 µM (inactive)
- GI50 [17]: > 100 µM (inactive)
- GI50 [18]: > 100 µM (inactive)
- GI50 [19]: > 100 µM (inactive)
- GI50 [53]: > 100 µM (inactive)
- GI50 [20]: > 100 µM
- GI50 [21]: > 100 µM (inactive)
- GI50 [54]: > 100 µM (inactive)
- GI50 [22]: > 100 µM (inactive)
- GI50 [23]: > 100 µM (inactive)
- GI50 [55]: > 100 µM (inactive)
- GI50 [24]: > 100 µM (inactive)
- GI50 [25]: > 100 µM (inactive)
- GI50 [26]: > 100 µM (inactive)
- GI50 [27]: > 100 µM (inactive)
- GI50 [29]: > 100 µM (inactive)
- GI50 [30]: > 100 µM (inactive)
- GI50 [31]: > 100 µM (inactive)
- GI50 [33]: > 100 µM (inactive)
- GI50 [34]: > 100 µM (inactive)
- GI50 [36]: > 100 µM (inactive)
- GI50 [37]: > 100 µM (inactive)
- GI50 [38]: > 100 µM (inactive)
- GI50 [39]: > 100 µM (inactive)
- GI50 [57]: > 100 µM (inactive)
- GI50 [40]: > 100 µM (inactive)
- GI50 [41]: > 100 µM (inactive)
- GI50 [42]: > 100 µM (inactive)
- GI50 [43]: > 100 µM (inactive)
- GI50 [44]: > 100 µM (inactive)
- GI50 [45]: > 100 µM (inactive)
- GI50 [58]: > 100 µM (inactive)
- GI50 [46]: > 100 µM (inactive)
- GI50 [47]: > 100 µM (inactive)
- GI50 [48]: > 100 µM (inactive)
- GI50 [49]: > 100 µM (inactive)
- GI50 [50]: > 100 µM (inactive)
- GI50 [51]: > 100 µM (inactive)
- GI50 [52]: > 100 µM (inactive)
